Results from patent US20260257980A1, “NOVEL DIMETHYLCHALCONE DERIVATIVE” (CHUNG-ANG UNIVERSITY INDUSTRY-ACADEMIC COOPERATION …, priority 2022, published 2026).

What follows are compounds tested on C2C12 myoblasts differentiated into myotubes (assay: Fatty acid oxidation rate (14CO2 from [1-14C] palmitate) in differentiated C2C12 myotubes). Details: 10 μM DMC derivative, 24 hours, lysate with 0.2 mmol/L [1-14C] palmitate, 3 hours, positive control AICAR, control compounds CON1-CON6, FIG. 1.
Type: cell-based
Method: To measure the fatty acid oxidation rate, C2C12 myoblasts were primarily cultured in DMEM supplemented with 10% fetal bovine serum, and then cultured for 5 days in DMEM supplemented with 2% horse serum in order to differentiate into myotubes. Then, the differentiated myotubes were treated with 10 μM of the DMC derivative, and cultured for 24 hours, and the cells were then harvested. Next, the harvested cells were lysed using a mitochondrial isolation buffer (250 mmol/L sucrose, 10 mmol/L Tris-HCl, and 1 mmol/L EDTA), treated with 0.2 mmol/L [1-^14C] palmitate, and then allowed to react for 3 hours. Next, the amount of ^14CO2 thus generated was measured, and the measured amount of ^14CO2 was corrected for the total amount of proteins to compare the fatty acid oxidation rate. In this case, AICAR was used as a positive control, and the compounds shown in Table 2 below were used as control compounds.

Row | SMILES | fatty acid oxidation rate (amount of 14CO2 generated, corrected for total protein)
1 | COCOc1c(C)c(O)c(C(=O)/C=C/c2cccc(F)c2)c(OC)c1C [Compound 1, 1-(2′-hydroxy-4′-(methoxymethoxy)-6′-methoxy-3′,5′-dimethylphenyl)-3-(3-fluorophenyl)-2-propen-1-one] | higher fatty acid oxidation effect than the derivatives (CON1, CON2)
2 | COc1c(C)c(O)c(C)c(O)c1C(=O)/C=C/c1cccc(F)c1 [Compound 8, 1-(2′,4′-dihydroxy-6′-methoxy-3′,5′-dimethylphenyl)-3-(3-fluorophenyl)-2-propen-1-one] | higher fatty acid oxidation effect than the derivatives (CON3, CON4)
3 | COc1c(C)c(OC)c(C(=O)/C=C/c2cccc(F)c2)c(OC)c1C [Compound 15, 1-(2′,4′,6′-trimethoxy-3′,5′-dimethylphenyl)-3-(3-fluorophenyl)-2-propen-1-one] | higher fatty acid oxidation effect than the derivatives (CON5, CON6)
